# Laboratory results taken from EPA's ToxRefDB 2.
# What was measured:
# rat [1] = conditions: Sub-acute repeat dose toxicity, Oral, Gavage/Intubation, dose end: 12 day, group: systemic
# dog [2] = conditions: Subchronic oral toxicity in nonrodent, beagle, Gavage/Intubation, dose end: 92 day, group: systemic
# dog [3] = conditions: Sub-acute repeat dose toxicity; beagle; Oral; Gavage/Intubation; dose end: 21 day; group: systemic; systemic / in life observation / clinical signs / abnormal feces + systemic / in life observation / clinical signs / watery stools
# dog [4] = conditions: Sub-acute repeat dose toxicity; beagle; Oral; Gavage/Intubation; dose end: 16 day; group: systemic; systemic / in life observation / clinical signs / abnormal feces + systemic / in life observation / clinical signs / emesis + systemic / in …
# rat [5] = conditions: Subchronic oral toxicity in rodents, sprague dawley, Gavage/Intubation, dose end: 92 day, group: systemic
# rabbit = conditions: Sub-acute repeat dose toxicity, new zealand white, Oral, Gavage/Intubation, dose end: 5 day, group: systemic
# rat [6] = conditions: Sub-acute repeat dose toxicity, sprague dawley, Oral, Gavage/Intubation, dose end: 15 day, group: systemic
# dog [7] = conditions: Sub-acute repeat dose toxicity; beagle; Oral; Gavage/Intubation; dose end: 23 day; group: systemic; systemic / in life observation / clinical signs / abnormal feces + systemic / in life observation / clinical signs / watery stools
# rat [8] = conditions: Subchronic oral toxicity in rodents, other, Feed, dose end: 90 day, group: systemic
# rat [9] = conditions: Multigenerational reproductive toxicity study, sprague dawley, Oral, Feed, dose end: 2 generation
# dog [10] = conditions: Chronic toxicity, beagle, Oral, Feed, dose end: 52 week, group: systemic
# dog [11] = conditions: Subchronic oral toxicity in nonrodent, beagle, Feed, dose end: 90 day, group: systemic, systemic / in life observation / body weight / body weight gain + systemic / in life observation / clinical signs / emaciation + systemic / …
# mouse [12] = conditions: Combined chronic toxicity/carcinogenicity, cd1, Oral, Feed, dose end: 80 week, group: systemic
# mouse [13] = conditions: Subchronic oral toxicity in rodents, cd1, Feed, dose end: 91 day, group: systemic
# rat [14] = conditions: Combined chronic toxicity/carcinogenicity, sprague dawley, Oral, Feed, dose end: 104 week, group: systemic
# [15] = systemic / in life observation / body weight / body weight + systemic / in life observation / clinical signs / red or crusty deposits around…
# [16] = systemic / in life observation / clinical signs / salivation + systemic / organ weight / liver / absolute
# [17] = systemic / clinical chemistry / [other] / [other] + systemic / clinical chemistry / cytochrome p450, nos / cytochrome p450, nos + systemic…
# [18] = systemic / in life observation / body weight / body weight gain + systemic / in life observation / food consumption / food consumption
# [19] = systemic / in life observation / body weight / body weight gain + systemic / in life observation / food consumption / food consumption + …
# [20] = systemic / in life observation / body weight / body weight + systemic / in life observation / clinical signs / abnormal feces + systemic / …
# [21] = systemic / in life observation / mortality / mortality + systemic / pathology gross / stomach / discolored + systemic / pathology gross / …
# [22] = systemic / organ weight / liver / absolute + systemic / organ weight / liver / relative to body weight + systemic / clinical chemistry / …
# [23] = systemic / organ weight / liver / absolute + systemic / organ weight / liver / relative to body weight + systemic / in life observation / …
# [24] = group: offspring, systemic / in life observation / body weight / offspring (pup) weight
# [25] = group: parental, systemic / in life observation / body weight / body weight gain + systemic / in life observation / body weight / body weight
# [26] = group: reproductive, reproductive / reproductive performance / gestational length / gestational length
# [27] = systemic / in life observation / body weight / body weight + systemic / in life observation / body weight / body weight gain + systemic / in…
# [28] = systemic / pathology gross / ear / misshapen
# [29] = systemic / pathology microscopic / liver / hypertrophy
# [30] = systemic / pathology microscopic / liver / hypertrophy + systemic / clinical chemistry / albumin / albumin + systemic / clinical chemistry…
# [31] = systemic / clinical chemistry / globulins / globulins + systemic / pathology gross / full gross necropsy / lymp lymphoma malignant …
smiles,measurement,setting,value
CCC(CC)Nc1cc(C)nc(Oc2c(C)cc(C)cc2C)c1C,LOAEL,rat [1]; [15],> 500 mg/kg/day
same,NOAEL,rat [1]; [15],≥ 500 mg/kg/day
same,LEL,rat [1]; [16],250 mg/kg/day
same,NEL,rat [1]; [16],< 250 mg/kg/day
same,LOAEL,dog [2]; [17],> 20 mg/kg/day
same,NOAEL,dog [2]; [17],≥ 20 mg/kg/day
same,LEL,dog [2]; systemic / in life observation / clinical signs / abnormal feces,2 mg/kg/day
same,LEL,dog [3],5 mg/kg/day
same,LOAEL,dog [3],> 5 mg/kg/day
same,NEL,dog [3],1 mg/kg/day
same,NOAEL,dog [3],≥ 5 mg/kg/day
same,LEL,dog [4],20 mg/kg/day
same,LOAEL,dog [4],> 20 mg/kg/day
same,NEL,dog [4],10 mg/kg/day
same,NOAEL,dog [4],≥ 20 mg/kg/day
same,LEL,rat [5]; [18],1 mg/kg/day
same,NEL,rat [5]; [18],< 1 mg/kg/day
same,LOAEL,rat [5]; [19],> 100 mg/kg/day
same,NOAEL,rat [5]; [19],≥ 100 mg/kg/day
same,LOAEL,rabbit; [20],> 500 mg/kg/day
same,NEL,rabbit; [20],50 mg/kg/day
same,NOAEL,rabbit; [20],≥ 500 mg/kg/day
same,LEL,rabbit; systemic / in life observation / food consumption / food consumption,100 mg/kg/day
same,LEL,rat [6]; systemic / in life observation / body weight / body weight + systemic / in life observation / body weight / body weight gain + systemic / …,100 mg/kg/day
same,LOAEL,rat [6]; [21],> 1000 mg/kg/day
same,NOAEL,rat [6]; [21],≥ 1000 mg/kg/day
same,LEL,dog [7],1 mg/kg/day
same,LOAEL,dog [7],> 1 mg/kg/day
same,NEL,dog [7],< 1 mg/kg/day
same,NOAEL,dog [7],≥ 1 mg/kg/day
CCOCn1c(-c2ccc(Cl)cc2)c(C#N)c(Br)c1C(F)(F)F [Chlorfenapyr],NEL,rat [8]; [22],24.1 mg/kg/day
same,NOAEL,rat [8]; [22],24.1 mg/kg/day
same,LEL,rat [8]; [23],48.4 mg/kg/day
same,LOAEL,rat [8]; [23],48.4 mg/kg/day
same,LEL,rat [9]; [24],22 mg/kg/day
same,LOAEL,rat [9]; [24],22 mg/kg/day
same,NEL,rat [9]; [24],5 mg/kg/day
same,NOAEL,rat [9]; [24],5 mg/kg/day
same,NEL,"rat [9]; group: parental, systemic / in life observation / body weight / body weight + systemic / in life observation / body weight / body weight gain",5 mg/kg/day
same,LOAEL,"rat [9]; group: parental, systemic / in life observation / body weight / body weight gain",22 mg/kg/day
same,LEL,rat [9]; [25],22 mg/kg/day
same,NOAEL,rat [9]; [25],5 mg/kg/day
same,LEL,rat [9]; [26],44 mg/kg/day
same,LOAEL,rat [9]; [26],> 44 mg/kg/day
same,NEL,rat [9]; [26],22 mg/kg/day
same,NOAEL,rat [9]; [26],≥ 44 mg/kg/day
same,LOAEL,dog [10]; systemic / in life observation / body weight / body weight + systemic / in life observation / body weight / body weight gain,8.7 mg/kg/day
same,LEL,dog [10]; [27],8.7 mg/kg/day
same,NEL,dog [10]; [27],4 mg/kg/day
same,NOAEL,dog [10]; [27],4 mg/kg/day
same,LEL,dog [11],6.7 mg/kg/day
same,LOAEL,dog [11],6.7 mg/kg/day
same,NEL,dog [11],3.9 mg/kg/day
same,NOAEL,dog [11],3.9 mg/kg/day
same,LOAEL,mouse [12]; systemic / in life observation / clinical signs / scabbing + systemic / pathology microscopic / brain / vacuolization,16.6 mg/kg/day
same,NOAEL,mouse [12]; systemic / in life observation / clinical signs / scabbing + systemic / pathology microscopic / brain / vacuolization + systemic / …,2.8 mg/kg/day
same,LEL,mouse [12]; [28],2.8 mg/kg/day
same,NEL,mouse [12]; [28],< 2.8 mg/kg/day
same,LOAEL,mouse [13]; [29],14.8 mg/kg/day
same,NEL,mouse [13]; [30],7.1 mg/kg/day
same,NOAEL,mouse [13]; [30],7.1 mg/kg/day
same,LEL,mouse [13]; systemic / pathology microscopic / liver / hypertrophy + systemic / hematology / lymphocyte / lymphocyte + systemic / hematology / …,14.8 mg/kg/day
same,NEL,rat [14]; [31],30.8 mg/kg/day
same,NOAEL,rat [14]; [31],2.9 mg/kg/day
same,LOAEL,rat [14]; [29],15 mg/kg/day
